Source: article PMC4427169, “Identification and structure solution of fragment hits against kinetoplastid N-myristoyltransferase” (Acta Crystallographica. Section F, Structural Biology …, 2015)
“And” between values parts separate entries of the source, which are not always exact repeats. Identical values can stand only once. Like-named read-outs stand apart in the source and are kept apart here.

Experiments:
[1] = design: method as in Frearson et al., 2010; conditions: ref Frearson et al., 2010; cited from earlier work
LmNMT [2] = molecular target: T1, LmNMT (Leishmania major, UniProt Q4Q5S8); test: Radiometric SPA-based enzyme-inhibition assay, LmNMT; format: biochemical; conditions: single fragment concentration of 0.5 mM
T1 construct: LmNMT (5–421) was cloned into a pET-15b-derived vector; 6xHis followed by TEV cleavage site (N); made in house; host or cells: E. coli Rosetta (DE3)
T1 sequence (Q4Q5S8 entry or part of it): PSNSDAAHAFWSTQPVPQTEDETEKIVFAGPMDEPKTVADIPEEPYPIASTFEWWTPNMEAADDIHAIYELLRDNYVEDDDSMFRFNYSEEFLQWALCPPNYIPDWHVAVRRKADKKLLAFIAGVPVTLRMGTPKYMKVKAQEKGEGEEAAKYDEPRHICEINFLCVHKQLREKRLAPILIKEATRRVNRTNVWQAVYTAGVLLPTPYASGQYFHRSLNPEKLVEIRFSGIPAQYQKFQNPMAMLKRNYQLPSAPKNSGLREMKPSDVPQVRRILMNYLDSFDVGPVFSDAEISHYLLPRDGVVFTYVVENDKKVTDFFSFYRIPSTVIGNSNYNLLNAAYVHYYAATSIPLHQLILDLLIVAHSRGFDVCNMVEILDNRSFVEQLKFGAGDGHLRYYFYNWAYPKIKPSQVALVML
Method: (§1) Activity assays for TbNMT and LmNMT were carried out using a radiometric SPA-based assay as described previously (Frearson et al., 2010[▶]; Brand et al., 2014[▶]). Percentage inhibition (PI) was determined using a fragment concentration of 0.5 mM in the assay.

LmNMT [3] = molecular target: T1, LmNMT; test: Biolayer interferometry binding, LmNMT; conditions: for increase of affinity in the presence of myristoyl-CoA, LmNMT: with vs without myristoyl-CoA; for LE LmNMT, MYA (absence of cofactor) / LE LmNMT, +MYA: ligand efficiency calculated from K d; for LE LmNMT, MYA (absence of cofactor): absence of myristoyl-CoA; for LE LmNMT, +MYA: presence of myristoyl-CoA
Method: (§2) TbNMT and LmNMT were biotinylated by incubation with NHS-PEG4-biotin (Thermo) in a 1:1 molar ratio for 30 min at room temperature before free biotinylation reagent was removed by passage through a 2 ml Zeba desalt spin column (Thermo). Biolayer interferometry (BLI) measurements were carried out using an Octet RED 384 instrument (ForteBio). TbNMT and LmNMT were immobilized upon superstreptavidin (SSA) biosensors by incubation for 900 s at 25 and 50 µg ml^−1, respectively, before free streptavidin sites were blocked by a 60 s dip into 10 µg ml^−1 biocytin (Tocris). A control set of SSA biosensors were prepared in parallel by blocking the surface with biocytin. A seven-point concentration series was prepared for each fragment molecule in threefold dilution steps from a top concentration of 1 mM. For each set of biosensors, a 60 s baseline in buffer alone was acquired followed by a 60 s association step and a 180 s dissociation step. […] Data were processed and analysed and K d values were determined using the global fitting procedures as implemented in ForteBio Data Analysis Software v.7.0.1.5. The ligand efficiency metric was calculated using LE = −RTlnK d/heavy-atom count (Hopkins et al., 2004[▶]).

TbNMT [4] = molecular target: T2, TbNMT (Trypanosoma brucei brucei, UniProt Q388H8); test: Fragment screen by ligand-observed NMR spectroscopy (STD, water-LOGSY, CPMG) with DDD85646 competition; conditions: fragments at 500 µM, binding and competition with 50 µM DDD85646 in STD
T2 sequence (Q388H8 1-446): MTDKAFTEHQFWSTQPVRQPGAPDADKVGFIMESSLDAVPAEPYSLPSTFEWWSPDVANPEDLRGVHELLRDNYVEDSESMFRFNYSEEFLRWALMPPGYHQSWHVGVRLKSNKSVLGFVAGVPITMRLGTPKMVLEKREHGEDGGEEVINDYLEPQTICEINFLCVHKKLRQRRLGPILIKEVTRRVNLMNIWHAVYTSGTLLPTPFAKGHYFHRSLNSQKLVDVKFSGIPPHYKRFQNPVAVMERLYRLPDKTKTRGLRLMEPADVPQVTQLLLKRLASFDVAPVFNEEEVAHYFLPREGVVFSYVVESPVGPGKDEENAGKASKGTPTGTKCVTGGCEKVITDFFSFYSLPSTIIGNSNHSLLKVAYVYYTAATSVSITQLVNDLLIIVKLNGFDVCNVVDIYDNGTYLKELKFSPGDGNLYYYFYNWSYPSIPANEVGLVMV
Method: TbNMT was prepared at 10 µM in 25 mM sodium phosphate pH 7.4 and 10% deuterated water and the cofactor myristoyl-CoA was added to a final concentration of 50 µM.

TbNMT [5] = molecular target: T2, TbNMT; test: Biolayer interferometry binding, TbNMT; design: The gene encoding TbNMT was cloned into a pET-15-derived expression vector; 6xHis followed by TEV cleavage site (N); made in house; host or cells: Escherichia coli Rosetta (DE3); conditions: for increase of affinity in the presence of myristoyl-CoA, TbNMT: with vs without myristoyl-CoA; for LE TbNMT, MYA (absence of cofactor) / LE TbNMT, +MYA: ligand efficiency calculated from K d; for LE TbNMT, MYA (absence of cofactor): absence of myristoyl-CoA; for LE TbNMT, +MYA: presence of myristoyl-CoA
Method: as §2

TbNMT [6] = molecular target: T2, TbNMT; test: Radiometric SPA-based enzyme-inhibition assay, TbNMT; format: biochemical; design: The gene encoding TbNMT was cloned into a pET-15-derived expression vector; 6xHis followed by TEV cleavage site (N); made in house; host or cells: Escherichia coli Rosetta (DE3); conditions: single fragment concentration of 0.5 mM
Method: as §1

[7] = BLI, absence of the cofactor myristoyl-CoA (MYA), read-out: K d LmNMT, MYA (absence of cofactor)
[8] = BLI, presence of 1 µM myristoyl-CoA (MYA), read-out: K d LmNMT, +MYA
[9] = BLI, absence of the cofactor myristoyl-CoA (MYA), read-out: K d TbNMT, MYA (absence of cofactor)
[10] = BLI, presence of 1 µM myristoyl-CoA (MYA), read-out: K d TbNMT, +MYA

Compound | CNS exposure [1] | PI (%) LmNMT (LmNMT [2]) | Kd (LmNMT [3]; [7]) | Kd (LmNMT [3]; [8]) | increase of affinity in the presence of myristoyl-CoA, LmNMT (LmNMT [3]; BLI) | LE LmNMT, MYA (absence of cofactor) (LmNMT [3]) | LE LmNMT, +MYA (LmNMT [3]) | NMR hit class (TbNMT [4]) | Kd (TbNMT [5]; [9]) | Kd (TbNMT [5]; [10]) | increase of affinity in the presence of myristoyl-CoA, TbNMT (TbNMT [5]; BLI) | LE TbNMT, MYA (absence of cofactor) (TbNMT [5]) | LE TbNMT, +MYA (TbNMT [5]) | PI (%) TbNMT (TbNMT [6]) | Kd (LmNMT [3]) | Kd (TbNMT [5])
Cc1nn(C)c(C)c1NS(=O)(=O)c1c(Cl)cc(-c2ccnc(N3CCNCC3)c2)cc1Cl [DDD85646] | lack of CNS exposure |  |  |  |  |  |  |  |  |  |  |  |  |  |  | 
CNCc1cccc(CN2CCOCC2)c1 [Fragment 2] |  | 55% | 980 µM | 200 µM | around fivefold | 0.25 | 0.31 | class I | 760 µM | 90 µM | around fivefold | < 0.3 and 0.26 | > 0.3 and 0.34 | 36% |  | 
CNCc1cc(-c2ccccc2)nn1C [Fragment 3] |  | 52% | 700 µM | 180 µM | around fivefold | 0.28 | 0.34 | class II | 530 µM | 200 µM | around fivefold | < 0.3 and 0.30 | > 0.3 and 0.33 | 70% |  | 
Nc1ccccc1N1CCNCC1 [Fragment 4] |  | 53% |  |  |  | 0.42 |  | class II |  |  |  | 0.45 |  |  | 98 µM | 48 µM
